# Source: ChEMBL document CHEMBL1201862, “PubChem BioAssay data set” (2004)
# Calls of active or inactive are those of the source.
# What was measured:
# [1] = StAR promoter reporter inhibition counter-screen, dose response, counter-screen for LRH-1 inverse agonist project, cell-based, luminescence, luciferase reporter (AID 651969); format: functional
# [2] = molecular target: Nuclear receptor subfamily 5 group A member 2 (Homo sapiens, UniProt O00482); format: functional, cell-based;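 also: HEK293T cells transfected with LRH-1 and a StAR promoter luciferase reporter; potency for inhibitors that lower LRH-1 driven reporter light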
# Steroidogenic factor 1 = Steroidogenic factor 1 (Homo sapiens, UniProt Q13285); assay: Counterscreen for inverse agonists of the liver receptor homolog-1 (LRH-1; NR5A2): Luminescence-based cell-based high throughput dose response assay to identify inverse agonists of the Steroidogenic Factor 1 Nuclear Receptor (SF1; NR5A1).; format: functional
# [3] = molecular target: T1, Adenosylmethionine-8-amino-7-oxononanoate aminotransferase (Mycobacterium tuberculosis, UniProt P9WQ81); assay: Mycobacterium tuberculosis BioA enzyme inhibitor Measured in Biochemical System Using Plate Reader - 2163-02_Inhibitor_Dose_CherryPick_Activity.; format: functional, Mycobacterium tuberculosis UT205
# T1 sequence (P9WQ81 whole entry): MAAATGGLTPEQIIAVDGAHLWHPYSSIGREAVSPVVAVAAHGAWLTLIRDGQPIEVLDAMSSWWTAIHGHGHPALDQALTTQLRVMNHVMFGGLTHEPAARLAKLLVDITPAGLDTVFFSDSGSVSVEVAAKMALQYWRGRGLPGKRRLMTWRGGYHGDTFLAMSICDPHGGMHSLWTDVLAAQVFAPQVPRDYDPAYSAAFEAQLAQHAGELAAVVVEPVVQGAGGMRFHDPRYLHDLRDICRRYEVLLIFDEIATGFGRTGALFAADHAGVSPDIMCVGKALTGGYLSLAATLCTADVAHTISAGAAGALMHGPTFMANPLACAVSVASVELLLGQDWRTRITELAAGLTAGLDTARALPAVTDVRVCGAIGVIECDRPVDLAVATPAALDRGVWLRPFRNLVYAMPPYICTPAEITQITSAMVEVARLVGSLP
# HEK293 [4] = assay: cells; settings: Homo sapiens
# [5] = off-target signal loss in HeLa-CEM21 co-culture – HeLa F-luc CTL cells, cherry-picked, counter-screen for HIV-1 Env fusion inhibitor project, dose response (AID 652040); format: functional, cell-based;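 also: potency for signal decrease marking cytotoxic or nonspecific inhibition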
# [6] = ZM109 Env clade C HIV-1 fusion inhibitors, dose response, HeLa effector, CEM target cells, luciferase, cherry-pick (AID 652058); format: functional, cell-based
# [7] = inhibitors of clade B AD8 Env fusion, dose response, cell-based, cherry-pick (AID 652062); format: functional;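 also: luciferase signal from cell-cell fusion driven by HIV-1 clade B AD8 Env; potency is for inhibitors of fusion seen as a drop in luminescence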
# [8] = inhibitors of HIV Env-driven cell fusion, dose response, cherry-pick (AID 652057); format: functional, cell-based
# HEK293 [9] = assay: cells; settings: Homo sapiens; remark: listed apart in the source
# [10] = molecular target: T2, Mitochondrial peptide methionine sulfoxide reductase (Bos taurus, UniProt P54149); format: functional;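 also: absorbance read-out, biochemical high-throughput dose-response screen for MsrA inhibitors, confirmatory; recombinant bovine MsrA coupled to E. coli TrxB with NADPH and selenocystamine; potency is for inhibitors of MsrA activity on DMSO substrate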
# T2 sequence (P54149 whole entry): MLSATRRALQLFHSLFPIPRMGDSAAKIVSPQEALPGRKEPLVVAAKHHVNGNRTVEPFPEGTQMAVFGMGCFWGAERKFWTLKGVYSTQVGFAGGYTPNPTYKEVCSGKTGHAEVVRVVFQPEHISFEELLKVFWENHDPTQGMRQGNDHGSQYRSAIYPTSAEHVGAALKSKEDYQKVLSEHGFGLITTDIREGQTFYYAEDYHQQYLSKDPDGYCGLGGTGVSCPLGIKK
# [11] = molecular target: T3, Orexin/Hypocretin receptor type 1 (Homo sapiens, UniProt O43613); assay: Homogeneous Time Resolved Fluorescence (HTRF)-based cell-based high throughput dose response assay for antagonists of the orexin 1 receptor (OX1R; HCRTR1). [Related pubchem assays (depositor defined):AID434989, AID435008, AID463079, AID485270, AID492963, AID492964, AID492965, AID493232, AID504717, AID504718]; format: functional
# T3 sequence (O43613 whole entry): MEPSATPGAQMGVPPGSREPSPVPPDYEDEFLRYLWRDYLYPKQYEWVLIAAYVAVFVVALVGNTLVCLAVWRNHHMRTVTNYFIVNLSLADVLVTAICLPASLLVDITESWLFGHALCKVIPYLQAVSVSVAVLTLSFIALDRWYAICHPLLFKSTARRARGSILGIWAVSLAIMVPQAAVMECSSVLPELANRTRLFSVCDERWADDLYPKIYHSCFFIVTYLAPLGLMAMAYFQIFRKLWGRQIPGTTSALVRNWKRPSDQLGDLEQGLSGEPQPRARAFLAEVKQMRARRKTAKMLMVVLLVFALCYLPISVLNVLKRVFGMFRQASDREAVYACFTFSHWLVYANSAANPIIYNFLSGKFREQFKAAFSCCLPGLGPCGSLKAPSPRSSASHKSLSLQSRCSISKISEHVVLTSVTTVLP
# [12] = molecular target: T3, Orexin/Hypocretin receptor type 1; assay: Fluorescence-based cell-based high throughput dose response assay for antagonists of the orexin 1 receptor (OX1R; HCRTR1). [Related pubchem assays (depositor defined):AID434989, AID435008, AID463079, AID485270, AID492963, AID492964, AID492965, AID493232, AID504717, AID504718]; format: functional
# CHO-K1 = assay: (§1) Counterscreen for antagonists of the orexin 1 receptor (OX1R; HCRTR1): Homogeneous time resolved fluorescence (HTRF)-based cell-based dose response assay to identify antagonists of the parental CHO-K1 cell line. [Related pubchem assays (depositor defined):AID434989, AID435008, AID463079, AID485270, AID492963, AID492964, AID492965, AID493232, AID504699, AID504701]; format: functional; settings: Cricetulus griseus
# [13] = as §1, with “Fluorescence-based” for “Homogeneous time resolved fluorescence (HTRF)-based”, “cell-based high throughput” for “cell-based”, “CHO” for “CHO-K1”; format: functional
# [14] = molecular target: 72 kDa type IV collagenase (Homo sapiens, UniProt P08253); assay: Dose Response validation of uHTS RPN11 inhibitor hits using a MMP-2 Fluorescence assay.; format: functional
# Prothrombin = Prothrombin (Bos taurus, UniProt P00735); assay: thrombin inhibition, dose response, biochemical, fluorescence polarization, uHTS hits (AID 602369); format: functional
# [15] = molecular target: 26S proteasome non-ATPase regulatory subunit 14 (Homo sapiens, UniProt O00487); assay: inhibition of proteasome subunit RPN11 – biochemical, fluorescence polarization, uHTS hits, confirmation (AID 602368); format: functional
# [16] = Shn3 3'UTR reporter inhibitors, dose response, cell-based, Clone20 osteoblasts, firefly luciferase, cherry-picked (AID 624132); format: functional;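 also: firefly luciferase luminescence from reporter carrying the Shn3 3'UTR in osteoblasts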
# CHO = assay: cytotoxicity in TLR9-MyD88 CHO cells, dose response, cytotoxicity control for TLR9-MyD88 binding inhibitor project, cell-based, luminescence (AID 588339); format: functional, hamster; settings: Cricetulus griseus;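 also: CHO cells stably coexpressing TLR9 and MyD88 fusions from primary screen; compound exposure lasted 48 hours before viability readout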
# [17] = HepG2 cell cytotoxicity, dose response, cytotoxicity control for Shn3 inhibitor project, CellTiter-Glo, cherry-picked (AID 624134); format: functional, cell-based
# Beta Lactamase = Beta Lactamase (Pseudomonas aeruginosa, UniProt Q932Y6); assay: beta-lactamase reporter inhibitor potency, dose response, artefact control for TLR9-MyD88 binding inhibitor project, BLA reporter cells, FRET fluorescence (AID 588341); format: cell-based;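 also: cell based assay in CHO-K1 cells stably expressing beta-lactamase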
# [18] = control 3'UTR Renilla luciferase suppression, dose response, counter-screen for Shn3 inhibitor project, cell-based, Clone20-Shn3RL, cherry-picked (AID 624133); format: functional
# [19] = microbe, parasite or virus in culture; format: functional; settings: Mycobacterium tuberculosis
# Beta Lactamase, sequence (Q932Y6 whole entry): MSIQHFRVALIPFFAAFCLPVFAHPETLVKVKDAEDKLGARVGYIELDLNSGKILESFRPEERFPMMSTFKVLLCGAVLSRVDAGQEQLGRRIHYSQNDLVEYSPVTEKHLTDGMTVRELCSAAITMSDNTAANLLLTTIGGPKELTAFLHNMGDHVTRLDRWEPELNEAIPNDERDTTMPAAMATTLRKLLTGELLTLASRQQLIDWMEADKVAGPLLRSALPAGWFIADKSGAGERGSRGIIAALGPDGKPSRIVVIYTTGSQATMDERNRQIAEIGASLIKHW
# 72 kDa type IV collagenase, sequence (P08253 whole entry): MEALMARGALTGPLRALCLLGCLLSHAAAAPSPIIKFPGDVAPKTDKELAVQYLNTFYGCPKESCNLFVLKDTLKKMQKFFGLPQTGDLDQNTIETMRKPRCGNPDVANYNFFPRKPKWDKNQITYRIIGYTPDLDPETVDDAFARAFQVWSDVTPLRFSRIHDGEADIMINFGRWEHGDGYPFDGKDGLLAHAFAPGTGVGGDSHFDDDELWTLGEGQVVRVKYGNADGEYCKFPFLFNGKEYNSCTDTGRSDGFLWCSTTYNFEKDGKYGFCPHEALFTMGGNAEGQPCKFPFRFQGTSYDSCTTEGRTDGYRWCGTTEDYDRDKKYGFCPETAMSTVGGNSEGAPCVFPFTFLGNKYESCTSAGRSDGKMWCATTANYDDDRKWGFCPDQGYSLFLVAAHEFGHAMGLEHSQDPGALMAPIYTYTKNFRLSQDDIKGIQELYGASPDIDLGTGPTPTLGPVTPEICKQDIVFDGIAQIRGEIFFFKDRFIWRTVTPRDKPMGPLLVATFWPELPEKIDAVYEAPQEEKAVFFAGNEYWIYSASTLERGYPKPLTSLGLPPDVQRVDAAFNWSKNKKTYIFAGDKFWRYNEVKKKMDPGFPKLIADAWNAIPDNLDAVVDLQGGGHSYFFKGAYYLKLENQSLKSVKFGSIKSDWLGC
# 26S proteasome non-ATPase regulatory subunit 14, sequence (O00487 whole entry): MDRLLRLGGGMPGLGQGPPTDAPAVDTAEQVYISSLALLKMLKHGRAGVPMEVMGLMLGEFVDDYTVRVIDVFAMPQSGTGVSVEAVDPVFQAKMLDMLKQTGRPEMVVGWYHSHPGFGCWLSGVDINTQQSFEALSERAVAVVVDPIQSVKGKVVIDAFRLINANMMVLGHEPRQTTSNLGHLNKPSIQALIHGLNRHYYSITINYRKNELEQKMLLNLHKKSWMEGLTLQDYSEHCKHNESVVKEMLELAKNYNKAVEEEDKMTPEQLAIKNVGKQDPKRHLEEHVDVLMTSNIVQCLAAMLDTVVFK
# Nuclear receptor subfamily 5 group A member 2, sequence (O00482 whole entry): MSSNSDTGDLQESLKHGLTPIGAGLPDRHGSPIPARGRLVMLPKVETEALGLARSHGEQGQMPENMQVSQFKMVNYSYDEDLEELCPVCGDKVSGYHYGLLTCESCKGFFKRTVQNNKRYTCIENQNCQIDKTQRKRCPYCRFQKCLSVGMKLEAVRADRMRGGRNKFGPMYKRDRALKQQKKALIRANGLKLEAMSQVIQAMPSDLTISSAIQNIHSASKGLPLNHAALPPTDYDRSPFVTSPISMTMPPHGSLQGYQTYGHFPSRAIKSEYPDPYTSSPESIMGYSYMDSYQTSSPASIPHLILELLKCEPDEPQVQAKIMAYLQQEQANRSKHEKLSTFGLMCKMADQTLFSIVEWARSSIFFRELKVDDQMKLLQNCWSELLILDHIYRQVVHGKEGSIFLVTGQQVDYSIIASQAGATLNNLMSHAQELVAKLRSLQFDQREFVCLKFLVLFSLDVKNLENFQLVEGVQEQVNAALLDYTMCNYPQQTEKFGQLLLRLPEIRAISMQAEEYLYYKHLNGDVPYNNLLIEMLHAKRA
# Steroidogenic factor 1, sequence (Q13285 whole entry): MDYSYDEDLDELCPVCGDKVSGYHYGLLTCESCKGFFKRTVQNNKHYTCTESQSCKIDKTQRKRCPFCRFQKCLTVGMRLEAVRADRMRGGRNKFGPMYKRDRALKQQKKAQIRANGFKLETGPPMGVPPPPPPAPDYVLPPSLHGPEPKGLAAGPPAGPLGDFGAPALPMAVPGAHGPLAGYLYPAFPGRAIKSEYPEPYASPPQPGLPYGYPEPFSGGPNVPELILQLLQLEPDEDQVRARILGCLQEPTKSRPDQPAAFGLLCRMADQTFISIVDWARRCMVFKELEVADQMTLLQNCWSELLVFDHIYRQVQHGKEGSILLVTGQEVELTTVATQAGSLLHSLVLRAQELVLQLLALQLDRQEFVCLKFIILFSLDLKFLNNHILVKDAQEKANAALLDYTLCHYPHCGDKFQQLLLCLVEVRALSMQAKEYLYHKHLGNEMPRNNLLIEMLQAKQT
smiles,measurement,setting,value
CCCN(CC(=O)Nc1ccc(C(N)=O)cc1)CC(=O)Nc1ccccc1C,IC50,[1],24.9 µM (inactive)
same,IC50,[2],5.11 µM (active)
same,IC50,Steroidogenic factor 1,2.88 µM (active)
C=C(C)n1c(=O)n(Cc2ccccc2C)c2ccccc21,AC50,[3],1.32 µM (active)
COC(=O)C1C(=O)C=C(Nc2ccc(F)cc2)CC1c1ccc(OC)cc1 (stereo not given),AC50,[3],1.01 µM (active)
COCCCN(C(=S)NC(=O)C12CC3CC(CC(C3)C1)C2)c1c(N)n(Cc2ccccc2)c(=O)[nH]c1=O,EC50,HEK293 [4],> 59.7 µM (inactive)
same,AC50,[5],1.92 µM (active)
same,AC50,[6],2.64 µM (active)
same,AC50,[7],4.29 µM (active)
same,AC50,[8],1.97 µM (active)
same,EC50,HEK293 [9],> 59.7 µM (inactive)
O=C(C1=C(O)C(=O)N(CCCn2ccnc2)C1c1cccc(Br)c1)c1ccco1 (stereo not given),IC50,[10],155 µM (inactive)
O=C(NCCN1C(=O)S/C(=C\c2ccccc2)C1=O)c1cc(S(=O)(=O)N2CCOCC2)c(Cl)cc1Cl,IC50,[11],20.3 µM (inactive)
same,IC50,[12],10.5 µM (inactive)
same,IC50,CHO-K1,> 66.2 µM (inactive)
same,IC50,[13],21.3 µM (inactive)
NS(=O)(=O)c1ccc(N/C=C\C(=O)c2ccc3ccccc3c2)cc1,IC50,[14],> 100 µM (inactive)
same,IC50,Prothrombin,56.5 µM (active)
same,IC50,[15],28.6 µM (active)
CCOc1ccc(NC(=O)COC(=O)C2CCC(=O)N2)c([N+](=O)[O-])c1 (stereo not given),IC50,[1],35.8 µM (inactive)
same,IC50,[2],35.8 µM (inactive)
same,IC50,Steroidogenic factor 1,35.8 µM (inactive)
Nc1cc(Cl)c2nonc2c1[N+](=O)[O-],EC50,HEK293 [4],> 59.7 µM (inactive)
same,AC50,[16],5.37 µM (active)
same,IC50,CHO,2.12 µM (active)
same,AC50,[17],29.6 µM (active)
same,IC50,Beta Lactamase,> 49.7 µM (inactive)
same,AC50,[18],1.37 µM (active)
same,EC50,HEK293 [9],> 59.7 µM (inactive)
same,CC50,[19],12 µM (active)
CN(C)C=O.CN(C)c1ccc(/C=C/c2nc3ccccc3c(=O)n2-c2ccc(C(=O)O)cc2)cc1,IC50,CHO,> 49.7 µM (inactive)
same,IC50,Beta Lactamase,9 µM (active)
CC(C)Cc1nnc(NC(=O)Cc2cccs2)s1,IC50,[14],> 100 µM (inactive)
same,IC50,Prothrombin,44.7 µM (active)
same,IC50,[15],20.6 µM (active)
